From US20240382438A1, “Calcium Channel Blockers and Methods Thereof” (University of Maryland, Eastern Shore, priority 2023, published 2024) come the findings set out here.

Assay [1] deals with T1, human Cav3.2 (Homo sapiens, UniProt O95180).
T1 construct: host or cells: HEK 293
Kind of assay: Whole-cell patch clamp of T-type Ca2+ currents in Cav3.2-stable transfected HEK 293 cells. It is filed as cell-based. The procedure:
Certain exemplary embodiments have undergone target identification studies to discover a better officious T-type calcium blocker. The fourteen trifluoromethylated N-benzamide enaminone compounds were synthesized, purified, and structure confirmed using gas chromatography/mass spectroscopy, nuclear magnetic resonance, and elemental analysis. Preliminary in vitro whole cell patch clamp experiments were performed to assess the inhibitory effects of several target analogs on voltage-activated calcium currents in human embryonic kidney (HEK-293) cells. Cav3.2 transfected HEK 293 cells were treated with 50 μM of test compounds and compared to the control group (none pretreated HEK 293 cells).
(§1) ND7/23 cells are derived from the fusion of mouse neuroblastoma and rat dorsal root ganglion cells, which generates a more homogeneous sensory neuron-like cell population. ND7/23 cells were purchased from Sigma-Aldrich (RRID:CVCL_4259). Culture and differentiation of ND7/23 cells was performed as previously described. Briefly, ND7/23 cells were cultured in DMEM/F12 culture media (Millipore, Cat. #DF-041-B), supplemented with 0.5% fetal bovine serum (Invitrogen, Cat. #10437010), db-cAMP (1 mM, Sigma-Aldrich, Cat. #D0627), and nerve growth factor (NGF, 50 ng/mL, Sigma-Aldrich, Ca. #N2513). To remove any proliferating cells, cultures were treated with uridine (20 μM, Sigma-Aldrich, Cat. #U3003) and fluorodeoxyuridine (20 μM, Sigma-Aldrich, Cat. #F0503). Cells were maintained in differentiation media without uridine and fluorodeoxyuridin after induction of differentiation. ND7/23 cells were maintained in differentiation media for ≤6 days. HEK 293 cells that were stabled transfected with the human Cav3.2 and Cav3.3 channel subunits were a gift of Dr. E. Perez-Reyes (University of Virginia). Cav3.2 (or Cav3.3)-stabled transfected HEK 293 cells were culture in DMEM/F12 culture media, supplemented with 5% fetal bovine serum, 50 U/mL penicillin and 50 μg/mL streptomycin. ND7/23 and HEK 293 cells were grown in an incubator at 37° C. in the presence of 5% CO2/95% air humidified atmosphere. Cells passaged less than 20 times were used in this work. Cells were grown in poly-D-lysine-coated glass coverslips for electrophysiological recordings.
Whole cell recordings were performed as previously described. A Nikon Eclipse Ti inverted microscope equipped with Hoffman optics and epifluorescence filters was used to visualize individual cells. Recordings were performed at room temperature (22-24° C.) using glass electrodes made from thin wall borosilicate glass (3-5 MΩ). For electrophysiological recordings of inward Ca^2+ currents, outward K^+ currents were eliminated by equimolar substitution of K^+ with Cs^+ in the pipette solution, whereas inward Na^+ currents were eliminated by the use of TEA ions in the external solution, which are unable to go through voltage-gated Na^+ channels. The pipette solution consisted of (in mM) CsCl (120), MgCl2(2), HEPES (10), EGTA (10), ATP (1), and GTP (0.1), pH 7.4 with CsOH. The composition of the normal external saline used for measurements of Ca^2+ currents was (in mM): tetraethylammonium chloride (TEACl, 145), CaCl2 (10), MgCl2(1), HEPES (10), and glucose (5), pH 7.4 adjusted with CsOH. Ca^2+ currents were generated by applying a 200-500 ms-depolarizing step to various potentials from a holding potential of −100 mV. The external solution used to measure Na^+ currents contained (in mM) NaCl (145), KCl (5.3), CaCl2 (0.5), MgCl2 (5.7), HEPES (13), and glucose (5), pH 7.4 adjusted with KOH. The composition of the CsCl-pipette solution used to record Na^+ currents was the same describe above. Na^+ currents were generated by applying a 20 ms-depolarizing step to various potentials from a holding potential of −100 mV. To assess drug-evoked changes on specific ionic conductances, current amplitudes were expressed as current densities as previously reported. […]
On the technique in general: In patch-clamp work, channel activity is measured electrically.

Assay [2] has as its system voltage-activated Na^+ channels. The assay can be described thus: Whole-cell recording of Na+ currents in differentiated ND7/23 cells. In kind it is cell-based, mouse neuroblastoma and rat dorsal root ganglion cells. Particulars: 50 μM. As for the experimental part:
as §1
Whole cell recordings were performed as previously described. A Nikon Eclipse Ti inverted microscope equipped with Hoffman optics and epifluorescence filters was used to visualize individual cells. Recordings were performed at room temperature (22-24° C.) using glass electrodes made from thin wall borosilicate glass (3-5 MΩ). For electrophysiological recordings of inward Ca^2+ currents, outward K^+ currents were eliminated by equimolar substitution of K^+ with Cs^+ in the pipette solution, whereas inward Na^+ currents were eliminated by the use of TEA ions in the external solution, which are unable to go through voltage-gated Na^+ channels. […] To assess drug-evoked changes on specific ionic conductances, current amplitudes were expressed as current densities as previously reported. […] Cell capacitance was determined by integrating the transient current evoked by a 10-mV voltage step from a holding potential of −60 mV.
A MULTICLAMP 700A amplifier and PCLAMP software (Axon Instruments) was used to deliver voltage commands and to perform data acquisition and analysis. […] Only cells with stable seals and series resistance (≤10 MΩ) were analyzed. […]

The subject of assay [3] is T-type Ca^2+ channels. The assay can be described thus: Whole-cell recording of T-type Ca2+ currents in differentiated ND7/23 cells. It is filed as cell-based, mouse neuroblastoma and rat dorsal root ganglion cells. Particulars: for Effect on T-type Ca2+ current density: vs non-treated cells. As for the experimental part: as §1
(§2) Whole cell recordings were performed as previously described. A Nikon Eclipse Ti inverted microscope equipped with Hoffman optics and epifluorescence filters was used to visualize individual cells. Recordings were performed at room temperature (22-24° C.) using glass electrodes made from thin wall borosilicate glass (3-5 MΩ). For electrophysiological recordings of inward Ca^2+ currents, outward K^+ currents were eliminated by equimolar substitution of K^+ with Cs^+ in the pipette solution, whereas inward Na^+ currents were eliminated by the use of TEA ions in the external solution, which are unable to go through voltage-gated Na^+ channels. The pipette solution consisted of (in mM) CsCl (120), MgCl2(2), HEPES (10), EGTA (10), ATP (1), and GTP (0.1), pH 7.4 with CsOH. The composition of the normal external saline used for measurements of Ca^2+ currents was (in mM): tetraethylammonium chloride (TEACl, 145), CaCl2 (10), MgCl2(1), HEPES (10), and glucose (5), pH 7.4 adjusted with CsOH. Ca^2+ currents were generated by applying a 200-500 ms-depolarizing step to various potentials from a holding potential of −100 mV. The external solution used to measure Na^+ currents contained (in mM) NaCl (145), KCl (5.3), CaCl2 (0.5), MgCl2 (5.7), HEPES (13), and glucose (5), pH 7.4 adjusted with KOH. The composition of the CsCl-pipette solution used to record Na^+ currents was the same describe above. Na^+ currents were generated by applying a 20 ms-depolarizing step to various potentials from a holding potential of −100 mV. To assess drug-evoked changes on specific ionic conductances, current amplitudes were expressed as current densities as previously reported. To assess current densities, cell size was normalized by dividing current amplitudes by cell capacitance. Cell capacitance was determined by integrating the transient current evoked by a 10-mV voltage step from a holding potential of −60 mV.
(§3) A MULTICLAMP 700A amplifier and PCLAMP software (Axon Instruments) was used to deliver voltage commands and to perform data acquisition and analysis. Pipette offset, whole cell capacitance, and series resistance were compensated automatically with the MultiClamp 700B Commander. Only cells with stable seals and series resistance (≤10 MΩ) were analyzed. Sampling rates were between 5 and 10 kHz. Leak currents were subtracted online using a P/4 protocol. […]

Assay [4] concerns the target T2, human Cav3.3 (Homo sapiens, UniProt Q9P0X4).
T2 construct: host or cells: HEK 293
Kind of assay: Whole-cell patch clamp of T-type Ca2+ currents in Cav3.3-stable transfected HEK 293 cells. In kind it is cell-based. The procedure: as §1, §2, §3

[5] abbreviates: 50 μM, HEK 293-Cav3.2 cells, vs non-treated cells.
The mark [6] stands for this setting: 50 μM, differentiated ND7/23 cells.
Setting [7] is: increasing concentrations 1-50 μM.

Entries after “also recorded” stand apart in the source; their conditions may differ.

T2 sequence (Q9P0X4 whole entry): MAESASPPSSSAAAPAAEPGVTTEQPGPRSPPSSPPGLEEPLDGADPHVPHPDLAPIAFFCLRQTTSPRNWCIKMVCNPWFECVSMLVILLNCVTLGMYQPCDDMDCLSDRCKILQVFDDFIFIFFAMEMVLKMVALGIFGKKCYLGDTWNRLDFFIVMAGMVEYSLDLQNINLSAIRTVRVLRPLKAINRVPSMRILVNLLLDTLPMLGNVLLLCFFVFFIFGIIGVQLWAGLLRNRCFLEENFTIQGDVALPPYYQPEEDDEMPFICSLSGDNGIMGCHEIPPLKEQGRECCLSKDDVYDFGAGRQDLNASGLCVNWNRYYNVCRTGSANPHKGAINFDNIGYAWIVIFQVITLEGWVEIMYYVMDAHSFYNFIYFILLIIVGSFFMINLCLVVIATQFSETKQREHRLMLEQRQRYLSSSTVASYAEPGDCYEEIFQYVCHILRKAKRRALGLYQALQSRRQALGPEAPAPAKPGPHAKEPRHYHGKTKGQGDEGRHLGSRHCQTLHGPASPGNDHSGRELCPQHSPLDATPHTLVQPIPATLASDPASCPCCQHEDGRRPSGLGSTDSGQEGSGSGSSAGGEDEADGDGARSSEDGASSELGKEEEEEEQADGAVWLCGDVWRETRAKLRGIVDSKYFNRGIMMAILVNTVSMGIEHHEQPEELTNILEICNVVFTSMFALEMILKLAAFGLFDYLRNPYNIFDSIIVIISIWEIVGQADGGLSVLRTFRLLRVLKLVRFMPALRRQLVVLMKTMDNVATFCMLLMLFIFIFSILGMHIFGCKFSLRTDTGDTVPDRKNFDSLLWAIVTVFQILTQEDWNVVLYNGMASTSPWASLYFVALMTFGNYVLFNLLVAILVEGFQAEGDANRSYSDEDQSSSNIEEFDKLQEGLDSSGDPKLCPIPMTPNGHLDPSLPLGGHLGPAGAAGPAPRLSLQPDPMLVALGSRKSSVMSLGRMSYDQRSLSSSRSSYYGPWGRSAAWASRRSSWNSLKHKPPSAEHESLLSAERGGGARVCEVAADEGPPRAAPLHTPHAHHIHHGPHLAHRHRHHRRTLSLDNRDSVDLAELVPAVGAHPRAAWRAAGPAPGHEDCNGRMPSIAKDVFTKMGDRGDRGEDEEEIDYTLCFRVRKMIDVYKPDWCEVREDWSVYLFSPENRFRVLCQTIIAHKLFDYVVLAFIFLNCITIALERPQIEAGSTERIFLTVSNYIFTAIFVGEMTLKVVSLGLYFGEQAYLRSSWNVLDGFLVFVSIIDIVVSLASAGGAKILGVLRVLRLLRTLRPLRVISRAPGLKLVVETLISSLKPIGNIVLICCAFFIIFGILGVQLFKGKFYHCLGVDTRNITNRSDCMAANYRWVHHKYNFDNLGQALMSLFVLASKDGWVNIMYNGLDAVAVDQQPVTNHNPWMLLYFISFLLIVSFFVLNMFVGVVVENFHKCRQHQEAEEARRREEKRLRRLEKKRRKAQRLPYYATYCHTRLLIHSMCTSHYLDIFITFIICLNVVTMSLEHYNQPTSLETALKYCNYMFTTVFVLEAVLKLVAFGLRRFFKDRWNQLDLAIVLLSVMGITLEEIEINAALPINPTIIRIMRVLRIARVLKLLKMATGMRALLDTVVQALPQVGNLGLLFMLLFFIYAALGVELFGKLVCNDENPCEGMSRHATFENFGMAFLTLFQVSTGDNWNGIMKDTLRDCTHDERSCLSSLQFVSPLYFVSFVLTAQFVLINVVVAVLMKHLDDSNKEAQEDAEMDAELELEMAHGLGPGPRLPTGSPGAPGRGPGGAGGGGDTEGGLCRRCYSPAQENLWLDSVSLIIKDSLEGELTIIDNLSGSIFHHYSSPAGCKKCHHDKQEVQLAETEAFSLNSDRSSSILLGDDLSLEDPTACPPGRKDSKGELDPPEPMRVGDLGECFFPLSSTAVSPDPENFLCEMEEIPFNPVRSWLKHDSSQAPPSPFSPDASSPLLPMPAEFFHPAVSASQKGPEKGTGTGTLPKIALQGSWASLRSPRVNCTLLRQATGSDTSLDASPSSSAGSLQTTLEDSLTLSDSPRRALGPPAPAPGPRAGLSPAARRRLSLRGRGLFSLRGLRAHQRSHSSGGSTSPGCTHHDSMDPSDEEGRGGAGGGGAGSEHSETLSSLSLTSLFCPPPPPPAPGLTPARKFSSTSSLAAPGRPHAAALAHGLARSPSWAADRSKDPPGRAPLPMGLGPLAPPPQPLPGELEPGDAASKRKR
T1 sequence (O95180 whole entry): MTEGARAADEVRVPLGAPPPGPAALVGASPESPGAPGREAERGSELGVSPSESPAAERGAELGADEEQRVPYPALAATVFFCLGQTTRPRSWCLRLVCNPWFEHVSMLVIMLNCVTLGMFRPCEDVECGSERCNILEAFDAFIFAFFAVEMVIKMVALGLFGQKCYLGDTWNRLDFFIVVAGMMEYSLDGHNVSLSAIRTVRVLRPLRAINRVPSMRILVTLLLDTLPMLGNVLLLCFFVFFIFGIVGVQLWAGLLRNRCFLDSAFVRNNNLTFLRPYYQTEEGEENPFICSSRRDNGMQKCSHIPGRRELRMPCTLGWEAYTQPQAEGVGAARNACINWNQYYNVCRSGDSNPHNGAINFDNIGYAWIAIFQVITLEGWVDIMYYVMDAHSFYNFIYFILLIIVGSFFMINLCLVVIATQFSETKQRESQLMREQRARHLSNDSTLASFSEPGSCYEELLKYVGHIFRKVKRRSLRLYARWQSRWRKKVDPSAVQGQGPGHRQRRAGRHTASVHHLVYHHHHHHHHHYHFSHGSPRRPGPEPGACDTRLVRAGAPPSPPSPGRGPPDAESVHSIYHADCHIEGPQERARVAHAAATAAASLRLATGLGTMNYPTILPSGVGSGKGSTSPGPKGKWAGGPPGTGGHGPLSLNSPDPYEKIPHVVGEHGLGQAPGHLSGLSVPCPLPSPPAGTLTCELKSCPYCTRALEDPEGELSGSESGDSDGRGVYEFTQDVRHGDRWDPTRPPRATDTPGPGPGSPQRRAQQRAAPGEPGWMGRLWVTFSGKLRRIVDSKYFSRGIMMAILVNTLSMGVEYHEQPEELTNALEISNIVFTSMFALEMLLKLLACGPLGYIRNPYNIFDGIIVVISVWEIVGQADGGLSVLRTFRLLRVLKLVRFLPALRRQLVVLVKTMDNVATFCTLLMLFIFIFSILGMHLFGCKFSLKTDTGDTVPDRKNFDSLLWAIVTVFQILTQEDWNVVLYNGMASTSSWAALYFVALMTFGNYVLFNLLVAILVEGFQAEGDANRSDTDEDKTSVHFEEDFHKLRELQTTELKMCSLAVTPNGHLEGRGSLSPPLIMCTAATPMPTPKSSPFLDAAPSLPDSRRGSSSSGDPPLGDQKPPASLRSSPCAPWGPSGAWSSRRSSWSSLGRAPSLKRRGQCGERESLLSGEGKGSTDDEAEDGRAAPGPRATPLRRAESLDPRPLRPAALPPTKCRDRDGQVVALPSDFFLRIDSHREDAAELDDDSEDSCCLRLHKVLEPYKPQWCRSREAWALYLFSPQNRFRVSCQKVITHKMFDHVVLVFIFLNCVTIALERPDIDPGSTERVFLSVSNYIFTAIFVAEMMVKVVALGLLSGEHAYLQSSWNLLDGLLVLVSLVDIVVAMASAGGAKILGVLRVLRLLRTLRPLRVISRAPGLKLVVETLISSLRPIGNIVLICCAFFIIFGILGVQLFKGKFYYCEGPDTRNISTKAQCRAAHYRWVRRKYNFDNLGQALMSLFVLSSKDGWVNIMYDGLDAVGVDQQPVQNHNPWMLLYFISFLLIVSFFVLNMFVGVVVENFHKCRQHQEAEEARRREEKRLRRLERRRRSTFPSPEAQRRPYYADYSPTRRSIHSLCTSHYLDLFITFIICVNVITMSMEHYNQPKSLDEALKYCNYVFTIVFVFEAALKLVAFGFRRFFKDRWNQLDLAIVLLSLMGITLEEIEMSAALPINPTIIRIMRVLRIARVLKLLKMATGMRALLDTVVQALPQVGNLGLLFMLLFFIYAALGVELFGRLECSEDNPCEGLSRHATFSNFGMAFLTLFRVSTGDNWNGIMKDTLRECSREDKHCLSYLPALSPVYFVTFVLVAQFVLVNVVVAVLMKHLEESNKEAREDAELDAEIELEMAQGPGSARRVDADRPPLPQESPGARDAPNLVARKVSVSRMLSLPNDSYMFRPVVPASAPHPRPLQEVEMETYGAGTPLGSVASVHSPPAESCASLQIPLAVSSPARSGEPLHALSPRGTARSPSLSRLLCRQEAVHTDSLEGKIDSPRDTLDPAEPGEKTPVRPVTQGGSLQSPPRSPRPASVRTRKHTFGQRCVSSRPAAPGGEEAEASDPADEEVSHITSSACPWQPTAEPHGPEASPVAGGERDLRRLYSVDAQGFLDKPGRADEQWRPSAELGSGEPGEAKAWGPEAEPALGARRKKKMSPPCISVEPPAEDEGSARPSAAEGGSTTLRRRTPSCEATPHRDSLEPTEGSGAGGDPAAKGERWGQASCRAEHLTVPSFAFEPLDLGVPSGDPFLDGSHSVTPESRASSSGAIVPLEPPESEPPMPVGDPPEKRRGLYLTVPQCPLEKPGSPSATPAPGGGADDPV

`O=C1C=C(NC(=O)c2cccc(C(F)(F)F)c2F)CC(C(F)(F)F)C1` (centres unmarked) [RHB103]: the “Effect on T-type Ca2+ current density” value in assay [1] (setting [5]) is recorded as “No inhibitory effect”.
Consider `CC1CC(=O)C=C(NC(=O)c2cccc(OC(F)(F)F)c2)C1` (centres unmarked) [ABA58], for which the “Effect on whole cell capacitance” value in assay [1] (50 μM, HEK 293-Cav3.2 cells) was “no significant changes; also recorded: no effect on cell capacitance”.
Take `O=C1C=C(NC(=O)c2cc(C(F)(F)F)cc(C(F)(F)F)c2)CC(C(F)(F)F)C1` (centres unmarked) [RHB-77, N-(3-oxo-5-(trifluoromethyl)cyclohex-1-en-1-yl)-3,5-bis(trifluoromethyl)benzamide]: in assay [1] (HEK293, 50 μM, Cav3.2 transfected HEK 293 cells, read-out: Inhibition of calcium currents on T-type calcium channels), the inhibition (in general, the drop in the measured response relative to a control, in per cent) at 50 µM amounted to 90%. Also, the “Concentration dependence of the inhibition of T-type Ca2+ currents” value in assay [1] (HEK 293-Cav3.2 cells) is on record as “significant inhibition of T-type calcium currents in a concentration-dependent manner”.
With `CC1CC(=O)C=C(NC(=O)c2ccccc2C(F)(F)F)C1` (centres unmarked) [IAA61, N-(5-methyl-3-oxocyclohex-1-en-1-yl)-2-(trifluoromethyl) benzamide], in assay [2], the “Effect on Na+ current density” value is “no noticeable effect”. Moreover, the “Effect on T-type Ca2+ current density” value in assay [3] (setting [6]) was “no effect”.
As for `CC(C)C1CC(=O)C=C(NC(=O)c2ccc(C(F)(F)F)cc2)C1` (centres unmarked) [IAC41, N-(5-isopropyl-3-oxocyclohex-1-en-1-yl)-4-(trifluoromethyl) benzamide], the “Effect on T-type Ca2+ current density” value in assay [3] (setting [6]) was “None of the tested compounds has any effect; also recorded: no effect on Ca^2+ current densities”.
On to `O=C1C=C(NC(=O)c2cc(F)cc(F)c2)CC(C(F)(F)F)C1` (centres unmarked) [RHB107], for which, in assay [1] (50 μM, HEK 293-Cav3.2 cells), the “Effect on whole cell capacitance” value is “no significant changes; also recorded: no effect on cell capacitance”.
`CC1CC(=O)C=C(NC(=O)c2ccccc2F)C1` (centres unmarked) [IAB67, 2-fluoro-N-(5-methyl-3-oxocyclohex-1-en-1-yl) benzamide]: the “Effect on T-type Ca2+ current density” value is on record as “None of the tested compounds has any effect” in assay [3] (setting [6]) and “no effect on Ca^2+ current densities” in assay [3] (50 μM, differentiated ND7/23 cells, listed as IAB65).
For `CC1CC(=O)C=C(NC(=O)c2cc(C(F)(F)F)cc(C(F)(F)F)c2)C1` (centres unmarked) [IAA65, N-(5-methyl-3-oxocyclohex-1-en-1-yl)-3,5-bis(trifluoromethyl) benzamide], in assay [1] (10 μM), the “Effect on activation time constant (τ)” value is on record as “no significant changes; also recorded: no effect”, the “Effect on inactivation time constant (τ)” value was “no effect on the inactivation τ”, the “Effect on peak current” value is recorded as “significant reduction” and the “Shift in voltage-dependence of T-type Ca2+ currents” value is “without significant changes; also recorded: no significant shift”. Moreover, the “Shift of the steady-state inactivation curve” value in assay [1] (10 μM) is listed as “leftward shift”. In addition, the “Effect on cell capacitance” value in assay [1] (1-50 μM) is given as “no effect on cell capacitance”. In assay [1] (setting [7]), the “Effect on T-type Ca2+ current density” value is reported as “significant reduction”. For the same molecule, in assay [1] (treated cells, 10 μM), the “V1/2 of steady-state inactivation (Boltzmann fit)” value was −70.2±1.0 mV. Moreover, the “Effect on Na+ current density” value in assay [2] was “no noticeable effect; also recorded: no effect on the Na^+ current densities”. Also, in assay [4] (10 μM), the “Effect on activation time constant (τ)” value is “rightward shift; also recorded: significant increase”, the “Effect on inactivation time constant (τ)” value was “significant reduction”, the “Effect on steady-state inactivation” value is “no effect” and the “Effect on voltage-current relationship” value is listed as “considerable reduction”. The “Shift in voltage-dependence of T-type Ca2+ currents” value in assay [4] (10 μM) was “no significant shift”. Further, the “Effect on cell capacitance” value in assay [4] (1-50 μM) is listed as “no effect on call capacitance; also recorded: no effect on cell capacitance”. The “Effect on T-type Ca2+ current density” value in assay [4] (setting [7]) is given as “significant reduction”. In assay [4] (treated cells, 10 μM), the “V1/2 of steady-state inactivation (Boltzmann fit)” value was −58.5±2.1 mV. The “Reversal of the effect on T-type Ca2+ current density after drug washout” value in assay [3] (50 μM, 5 min washout) was “no significant recovery; also recorded: did not reverse the drug effect”. The “Effect on T-type Ca2+ current density” value in assay [3] (setting [6]) is recorded as “significant reduction”. In assay [3] (differentiated ND7/23 cells, read-out: IC50 on T-type Ca2+ current densities), the IC50 (usually the point on the concentration scale where inhibition reaches its midpoint) is 10.6 µM.
Turning to `Cc1cc(C)cc(C(=O)NC2=CC(=O)CC(C)C2)c1` (centres unmarked) [RHB59, 3,5-dimethyl-N-(5-methyl-3-oxocyclohex-1-en-1-yl)benzamide], the “Effect on T-type Ca2+ current density” value in assay [1] (setting [5]) is on record as “No inhibitory effect”.
For `CC1CC(=O)C=C(NC(=O)c2ccc(C(F)(F)F)cc2)C1` (centres unmarked) [THA40, N-(5-methyl-3-oxocyclohex-1-en-1-yl)-4-(trifluoromethyl) benzamide], the “Effect on T-type Ca2+ current density” value is given as “None of the tested compounds has any effect” in assay [3] (setting [6]) and “no effect on Ca^2+ current densities” in assay [3] (50 μM, differentiated ND7/23 cells, listed as TTA40).
As to `CC1CC(=O)C=C(NC(=O)c2cccc(C(F)(F)F)c2)C1` (centres unmarked) [IAB15, N-(5-methyl-3-oxocyclohex-1-en-1-yl)-3-(trifluoromethyl) benzamide], the “Effect on Na+ current density” value in assay [2] was “no noticeable effect; also recorded: no effect on the Na^+ current densities”. Moreover, the “Effect on T-type Ca2+ current density” value in assay [3] (setting [6]) is given as “significant reduction”.
